Here are results for eight compounds from patent US20130266676A1, “TERMINALIA CHEBULA COMPOSITIONS AND METHOD OF EXTRACTING SAME” (NATREON, INC., priority 2012, published 2013).

One series has as its system HSV-1. The note with it: noncytotoxic doses, A549 human lung cells; cited from earlier work.
The test system of series [1] is stimulated human peripheral blood lymphocytes. The note with it: concentrations ten times above maximal effective concentration; cited from earlier work.
The next series concerns the target HIV rgp120 to CD4 (UniProt P01730+P04578). The conditions noted are these: cited from earlier work.
A further series concerns PRMI-7951 melanoma cells. The note with it: cited from earlier work.
In a further series the test system is LPS-stimulated RAW 264.7. The note with it: cited from earlier work.
The target of another series is T1, COX-2 (Homo sapiens, UniProt P35354).
T1 sequence (P35354 18-604): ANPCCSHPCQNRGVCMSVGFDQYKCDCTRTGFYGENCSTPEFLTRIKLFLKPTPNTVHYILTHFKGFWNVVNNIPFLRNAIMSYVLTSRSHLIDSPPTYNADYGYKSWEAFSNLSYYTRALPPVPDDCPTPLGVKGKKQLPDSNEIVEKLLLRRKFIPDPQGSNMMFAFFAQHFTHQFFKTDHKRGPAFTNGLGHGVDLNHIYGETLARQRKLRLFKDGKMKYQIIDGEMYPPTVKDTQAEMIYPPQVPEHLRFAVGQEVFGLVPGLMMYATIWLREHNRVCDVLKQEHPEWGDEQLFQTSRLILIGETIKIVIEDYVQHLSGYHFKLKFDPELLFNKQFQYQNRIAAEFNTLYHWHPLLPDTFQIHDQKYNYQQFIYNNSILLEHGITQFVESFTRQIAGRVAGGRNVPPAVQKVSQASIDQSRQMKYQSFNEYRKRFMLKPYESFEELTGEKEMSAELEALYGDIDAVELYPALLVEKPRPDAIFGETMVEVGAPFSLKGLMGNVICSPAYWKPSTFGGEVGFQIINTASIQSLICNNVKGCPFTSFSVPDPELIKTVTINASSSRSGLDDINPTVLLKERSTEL
The conditions noted are these: cited from earlier work.

The conditions of series [2]: compared with ascorbic acid, butylated hydroxyl toluene, alpha-tocopherol, arbutin and kojic acid; cited from earlier work.
The test system of a further series is HepG2 cells. The conditions noted are these: cited from earlier work.
Series [3] is described as follows: Thermal stability during aqueous extraction at 80±5° C. (HPLC). The note with it: different time points. In kind it is physicochemical. How it is done:
In another experiment, fruit pericarp portions of T. Chebula (50 g) were pulverized and the resulting powder was extracted with distilled water (300 ml) for 12 hours, with a continuous stirring (400 RPM), separately at different temperatures 30±5° C., 40±5° C., 60±5° C. and 80±5° C. using a pressure reactor. Aliquots of the samples were withdrawn at different time intervals during extraction, spray dried and analyzed for bioactives (Chebulagic acid, Chebulinic acid and other LMwHTs) by HPLC (as discussed above). The results are incorporated in Tables 3-6. As used herein, “0 hour” extraction refers to “instant extraction,” which for the purpose of this disclosure means distilled water was added to the pulverized powder on a thermostatic water bath, stirred for 5 minutes and an aliquot of the sample withdrawn and analyzed.

The next series concerns Smad pathway. The note with it: through inhibition of the Smad pathway; cited from earlier work.
For another series, the system named is COX-1. The conditions noted are these: cited from earlier work.
The test system of the next series is 5-LOX. The note with it: cited from earlier work.
Series [4] deals with HCT-15, COLO-205, MDA-MB-231, DU-145 and K562 cell lines. The note with it: cited from earlier work.
A further series relates to melanin. The conditions noted are these: compared with ascorbic acid, butylated hydroxyl toluene, alpha-tocopherol, arbutin and kojic acid; cited from earlier work.
For series [5], the system named is collagen-induced arthritis. The note with it: mice; cited from earlier work.
A further series relates to K562 cells. The conditions noted are these: concentration-dependent; cited from earlier work.
The conditions of series [6]: rats; cited from earlier work.
Series [7] deals with MCF-7, S115, HOS-1, PC-3 and PNT1A cell lines. The conditions noted are these: cited from earlier work.
The test system of series [8] is human cervical carcinoma HeLa cells. The note with it: cited from earlier work.
The subject of series [9] is cytotoxic T-lymphocyte (CTL)-mediated cytotoxicity. The note with it: cited from earlier work.

For the compound `O=C1O[C@H]2[C@@H]3OC(=O)c4cc(O)c(O)c(O)c4-c4c(O)c(O)c5oc(=O)c6c(c(O)c(O)c7oc(=O)c4c5c76)-c4c(cc(O)c(O)c4O)C(=O)OC[C@H]3OC(O)[C@@H]2OC(=O)c2cc(O)c(O)c(O)c2-c2c1cc(O)c(O)c2O` (mixture of isomers) [punicalagin], the “inhibition of HSV-1 entry” value in the series with HSV-1 is reported as “inhibit HSV-1 entry”.
As to `O=C1OC[C@H]2OC(O)[C@H](O)[C@@H](O)[C@@H]2OC(=O)c2cc(O)c(O)c(O)c2-c2c(O)c(O)c3oc(=O)c4c(c(O)c(O)c5oc(=O)c2c3c54)-c2c1cc(O)c(O)c2O` (mixture of isomers) [punicalin], in series [1], the toxicity to lymphocytes entry is “not toxic”. Besides, the “blocking of binding of HIV rgp120 to CD4” value at HIV rgp120 to CD4 is on record as “block the binding”.
For orientation: IC50 means the concentration needed to halve the response being measured. For the compound `O=C(O)CC1C(=O)OC2C3COC(=O)c4cc(O)c(O)c(O)c4-c4c(cc(O)c(O)c4O)C(=O)OC2C(OC(=O)c2cc(O)c(O)c4c2C1C(O)C(=O)O4)C(OC(=O)c1cc(O)c(O)c(O)c1)O3` [Chebulagic acid, beta-1-O-galloyl-2,4-chebuloyl-3,6-(R)-hexahydroxydiphenoyl-D-glucose], the cytotoxicity entry with PRMI-7951 melanoma cells was “cytotoxic properties”. Further, the anti-inflammatory effects entry in the series on LPS-stimulated RAW 264.7 is listed as “potent anti-inflammatory effects”. The results for the half-inhibitory concentration (IC50) on COX-2, with COX-1 and with 5-LOX were 920 ± 11 nM, 15000 ± 288 nM and 2100 ± 57 nM, respectively. In series [2], the “DPPH radical scavenging activity versus reference antioxidants” value is reported as “stronger”. The “enhancement of cytotoxicity of doxorubicin” value with HepG2 cells (HepG2 cells) is on record as 20 fold. The “interaction with doxorubicin by Combination Index (CI), cell growth inhibition” value with HepG2 cells is given as “strong synergistic interaction”. Besides, the thermal stability result in series [3] is on record as “thermolabile”. The “inhibition of HSV-1 entry” value in the series on HSV-1 was “inhibit HSV-1 entry”. In addition, the antifibrotic activity entry in the series on Smad pathway is “antifibrotic activity”. Besides, in series [4], the anti-proliferative activity result is given as “anti-proliferative activity”. Also, in the series with melanin, the “melanin inhibitory activity versus reference agents” value is on record as “stronger”. For the same compound, in series [5], the “onset and progression of collagen-induced arthritis” value is “suppress the onset and progression”.
For `O=C(O)CC1C(=O)OC2C(COC(=O)c3cc(O)c(O)c(O)c3)OC(OC(=O)c3cc(O)c(O)c(O)c3)C(OC(=O)c3cc(O)c(O)c4c3C1C(O)C(=O)O4)C2OC(=O)c1cc(O)c(O)c(O)c1` [Chebulinic acid, 1,3,6-tri-O-galloyl-2,4-chebuloyl-beta-D-glucose], the hemoglobin synthesis result with K562 cells is listed as “inhibited the hemoglobin synthesis”. In addition, the “DPPH radical scavenging activity versus reference antioxidants” value in series [2] is “stronger”. Further, the blood pressure effect result in series [6] is given as “blood pressure lowering effect”. For the same compound, the thermal stability result in [3] is “thermolabile”. Besides, in the series on Smad pathway, the antifibrotic activity result is reported as “antifibrotic activity”. The toxicity to lymphocytes entry in series [1] is on record as “not toxic”. Besides, in series [7], the growth inhibition result is recorded as “growth inhibitory”. In addition, the anti-tumor properties entry in series [8] is reported as “anti-tumor properties”. Also, in the series on melanin, the “melanin inhibitory activity versus reference agents” value is “stronger”. For the same compound, the “blocking of binding of HIV rgp120 to CD4” value at HIV rgp120 to CD4 is “block the binding”.
On to `O=C(O[C@H]1[C@@H]2OC(=O)c3cc(O)c(O)c(O)c3-c3c(cc(O)c(O)c3O)C(=O)OC[C@H]2OC(O)[C@@H]1OC(=O)c1cc(O)c(O)c(O)c1)c1cc(O)c(O)c(O)c1` (stereo partly shown) [Tellimagrandin I], for which the anti-tumor properties result in series [8] is listed as “anti-tumor properties”.
Regarding `O=C(O)C[C@H](C(=O)O)[C@H]1c2c(cc(O)c(O)c2O)C(=O)O[C@@H]1C(=O)O` [chebulic acid], the “blocking of CTL-mediated cytotoxicity” value in series [9] is given as “blocked”.
Turning to `O=c1oc2c(O)c(O)cc3c(=O)oc4c(O)c(O)cc1c4c23` [ellagic acid], the growth inhibition entry in series [7] is given as “growth inhibitory”.
As to `O=C(OC[C@H]1O[C@@H](OC(=O)c2cc(O)c(O)c(OC(=O)c3cc(O)c(O)c(O)c3)c2)[C@H](OC(=O)c2cc(O)c(O)c(OC(=O)c3cc(O)c(O)c(O)c3)c2)[C@@H](OC(=O)c2cc(O)c(O)c(OC(=O)c3cc(O)c(O)c(O)c3)c2)[C@@H]1OC(=O)c1cc(O)c(O)c(OC(=O)c2cc(O)c(O)c(O)c2)c1)c1cc(O)c(O)c(OC(=O)c2cc(O)c(O)c(O)c2)c1` [tannic acid], the growth inhibition result in series [7] is “growth inhibitory”.
